Measured values as given in PMC4826290 (Journal of molecular biology, 2016).

Biological target: T1, Pif1^238–780 (Saccharomyces cerevisiae, UniProt P07271)
T1 sequence (P07271 238-780): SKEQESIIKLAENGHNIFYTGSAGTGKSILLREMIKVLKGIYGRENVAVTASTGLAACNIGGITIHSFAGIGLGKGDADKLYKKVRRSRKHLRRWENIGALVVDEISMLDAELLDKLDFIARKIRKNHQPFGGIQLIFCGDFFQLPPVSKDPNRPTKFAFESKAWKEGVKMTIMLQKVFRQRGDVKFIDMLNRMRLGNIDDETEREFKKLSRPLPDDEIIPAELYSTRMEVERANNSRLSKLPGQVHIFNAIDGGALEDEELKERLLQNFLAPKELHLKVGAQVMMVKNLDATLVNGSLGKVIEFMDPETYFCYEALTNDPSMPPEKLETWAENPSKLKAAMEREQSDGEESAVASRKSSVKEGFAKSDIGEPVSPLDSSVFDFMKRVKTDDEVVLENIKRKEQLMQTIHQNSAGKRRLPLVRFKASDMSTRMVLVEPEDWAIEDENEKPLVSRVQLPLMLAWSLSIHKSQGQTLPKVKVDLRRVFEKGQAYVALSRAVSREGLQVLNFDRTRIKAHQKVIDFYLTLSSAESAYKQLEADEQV
Experiment: ssDNA-dependent ATPase
Type: biochemical

## Nc1ncnc2c1ncn2[C@@H]1O[C@H](COP(=O)(O)OP(=O)(O)OP(=O)(O)O)[C@@H](O)[C@H]1O [ATP]
  KATP: does not have major effects on the DNA-dependent ATPase activity and the KATP (Figure S1)
